Data published in EP0930067A2, “MMP inhibitors for the treatment of ocular angiogenesis” (Pfizer Products Inc., priority 1997, dated 1999).

System: angiogenesis
Assay: Inhibition of angiogenesis: in vivo rat model, pellet with angiogenic material (VEGF) and MMP inhibitor, corneal neovascularization scored after one week
Conditions: pellet implant
Procedure: Inhibition of Angiogenesis
The activity of MMP inhibitors, preferably MMP-2 or MMP-9 inhibitors, for inhibiting angiogenesis can be determined according to the following in vivo rat model. A 10µg pellet containing an angiogenic material, such as vascular endothelial growth factor (VEGF) and a matrix metalloproteinase inhibitor or placebo, is implanted intraorbitally. After one week the eyes are removed and the degree of inhibition of angiogenesis is determined qualitatively. Inhibitors with IC50's of less than 10nm reduced angiogenesis. […]

**Q.** For `CC(C)(NS(=O)(=O)c1ccc(Oc2ccc(F)cc2)cc1)C(=O)NO` [2-[4-(4-Fluoro-phenoxy)-benzenesulfonylamino]-N-hydroxy-2-methyl-propionamide], which “% Response” value (10ng + VEGF) is on record?
**A.** 20%

**Q.** What about the “Corneal Neovascularization (#Positive Response/#Response)” value (shortened to “Corneal Neovascularization”) (10ng + VEGF) of the same compound?
**A.** 1/5

**Q.** What about the “% Response” value (25ng + VEGF) of the same compound?
**A.** 17%

**Q.** And the “Corneal Neovascularization” value (25ng + VEGF)?
**A.** 1/6

**Q.** What about the “% Response” value (50ng + VEGF) of the same compound?
**A.** 0%

**Q.** What about the “Corneal Neovascularization” value (50ng + VEGF) of the same compound?
**A.** 0/5

**Q.** What about the “% Response” value (100ng + VEGF) of the same compound?
**A.** 0%

**Q.** What about the “Corneal Neovascularization” value (100ng + VEGF) of the same compound?
**A.** 0/5

**Q.** For `O=C(NO)C1C2CCC(O2)C1S(=O)(=O)c1ccc(Oc2ccccc2)cc1` (stereo not drawn) [3-(4-Phenoxy-benzenesulfonyl)-7-oxa-bicyclo[2.2.1]heptane-2-carboxylic acid hydroxyamide], which “% Response” value (10ng + VEGF) is on record?
**A.** 25%

**Q.** And the “Corneal Neovascularization” value (10ng + VEGF)?
**A.** 4/4

**Q.** And the “% Response” value (25ng + VEGF)?
**A.** 60%

**Q.** What about the “Corneal Neovascularization” value (25ng + VEGF) of the same compound?
**A.** 3/5

**Q.** What about the “% Response” value (50ng + VEGF) of the same compound?
**A.** 40%

**Q.** What about the “Corneal Neovascularization” value (50ng + VEGF) of the same compound?
**A.** 2/5

**Q.** And the “% Response” value (100ng + VEGF)?
**A.** 20%

**Q.** What about the “Corneal Neovascularization” value (100ng + VEGF) of the same compound?
**A.** 1/5

**Q.** What does the source list for `O=C(O)CCN(C1(C(=O)NO)CCCC1)S(=O)(=O)c1ccc(Oc2ccc(F)cc2)cc1` [3-[[4-(4-Fluoro-phenoxy)-benzenesulfonyl]-(1-hydroxycarbamoyl-cyclopentyl)-amino]-propionic acid]?
**A.** % Response (10ng + VEGF): 25%; Corneal Neovascularization (#Positive Response/#Response) (10ng + VEGF): 1/4; % Response (25ng + VEGF): 17%; Corneal Neovascularization (#Positive Response/#Response) (25ng + VEGF): 1/6; % Response (50ng + VEGF): 0%; Corneal Neovascularization (#Positive Response/#Response) (50ng + VEGF): 0/5; % Response (100ng + VEGF): 0%; Corneal Neovascularization (#Positive Response/#Response) (100ng + VEGF): 0/5
